US6086849A, “Technetium-99m labeled peptides for imaging” (Diatide, Inc., priority 1995, dated 2000)

What was measured:
[1] = tested on: deep vein thrombus (femoral vein, embolization coil); assay: In vivo imaging of deep vein thrombosis in a canine model; design: species or system dog
Text: Mongrel dogs (25-35 lb., fasted overnight) were sedated with a combination of ketamine and aceprozamine intramuscularly and then anesthetized with sodium pentobarbital intravenously. An 18-gauge angiocath was inserted in the distal half of the right femoral vein and an 8 mm Dacron®-entwinedstainless steel embolization coil (Cook Co., Bloomington Ind.) was placed in the femoral vein at approximately mid-femur in each animal. The catheter was removed, the wound sutured and the placement of the coil documented by X-ray. The animals were then allowed to recover overnight.
One day following coil placement, each animal was re-anesthetized, intravenous saline drips placed in each foreleg and a urinary bladder catheter inserted to collect urine. The animal was placed supine under a gamma camera which was equipped with a low-energy, all purpose collimator and photopeaked for Tc-99m. Images were acquired on a NucLear Mac computer system.
Tc-99m labeled P357 [(CH2 CO--YD.Apc.GDCGGCAcm GCAcm GGC.amide)2 -[BAT-BS]] [185-370 MBq (5-10 mCi) Tc-99m and 0.2-0.4 mg P357] was injected into one foreleg intravenous line at its point of insertion. The second line was maintained for blood collection. Anterior images over the legs were acquired for 500,000 counts or 20 min (whichever was shorter), at approximately 10-20 min, and at approximately 1, 2, 3 and 4 h post-injection. Following the collection of the final image, each animal was deeply anesthetized with pentobarbital. Two blood samples were collected on a cardiac puncture using a heparinized syringe followed by a euthanazing dose of saturated potassium chloride solution administered by intercardiac or bolus intravenous injection. The femoral vein containing the thrombus and samples of thigh muscle were then carefully dissected out. The thrombus was then dissected free of the vessel and placed in a pre-weighed test tube. The thrombus samples were then weighed and counted in a gamma well counter in the Tc-99m channel. Known fractions of the injected doses were counted as well.
Fresh thrombus weight, percent injected dose (%ID)/g in the thrombus and blood obtained just prior to euthanasia and thrombus/blood and thrombus/muscle ratios determined. Thrombus/background ratios were determined by analysis of the counts/pixel measured in regions-of-interest(ROI) drawn over the thrombus and adjacent muscle from computer-stored images.

[2] = tested on: atherosclerotic plaque; type: in vivo, New Zealand White rabbit
Description: Twenty-two New Zealand White (NZW) rabbits of both sexes and weighing 2-3 kg were divided into two groups. The control group consisted of 6 rabbits that were housed and fed commercial rabbit chow (Purina). Sixteen rabbits, the HC group, were fed a standardized, cholesterol-rich diet (rabbit chow mixed to a 1% w/w concentration of cholesterol) from seven weeks until 28 weeks of age. All animals were given water ad libitum.
Tc-99m labeled P215 ([BAT]RALVDTLKFVTQAEGAK.amide) was prepared as described above. Approximately 250-400 μg of peptide was labeled with 140-160 mCi of Tc-99m and prepared in unit doses of 7-8 mCi (12.5-20.0 μg/rabbit; 6-7 μg/kg) in 0.2 mL volume doses. Adult rabbits were dosed with Tc-99m labeled peptide intravenously in a lateral ear vein by slow bolus infusion (approximately 0.1 mL/min). A gamma camera fitted with a pin-hole collimator (5 mm aperture) and energy window set for Tc-99m and programmed to accumulate 500,000 counts or scan for a desired time. Shortly before imaging, animals were anesthetized with a mixture of ketamine and xylazine (5:1, 1 mL/kg intramuscularly).
Gamma camera images were collected at 40-45° just above the heart (left anterior oblique [LAO] view) to delineate the aortic arch and view the descending aorta. Images were acquired at 1 and 2 h and occasionally at 3 and 5 h after injection. Supplementary anesthesia was injected as needed prior to each image collection.
At 2.5 h (after a 2 h scan), animals were sacrificed with an intravenous dose of sodium pentobarbital. Upon necropsy, the aorta was removed and branching vessels dissected free from the aortic valve to the mid-abdominal region. Using a parallel hole collimator, the aorta was imaged ex corpora. Next, the aortae were opened longitudinally and stained with Sudan IV, thereby turning atherosclerotic plaque a deep red brick color. Lipid-free and uninjured aortic endothelium retains its normal, glistening white-pink appearance under these conditions.

[3] = Tc-99m labeled, i.v., tissues after final image (about 4 h), average ± SD

In the case of “(CH2 CO--YD.Apc.GDCGGCAcm GCAcm GGC.amide)2 -[BAT-BS] [Compound P357]”, the “% ID/g Thrombus” value ([1]; Tc-99m labeled, i.v., thrombus dissected after final image (about 4 h), average ± SD) is reported as 0.016 ± 0.005 % ID/g, the Thrombus/Blood ratio [1, 3] is reported as 5.6 ± 1.4 and the Thrombus/Muscle ratio [1, 3] is reported as 17 ± 4.7. For the same substance, the Thrombus/Background ratio ([1]; counts/pixel in ROI over thrombus and adjacent muscle from images, Tc-99m labeled, i.v., n = 1) was 2.3, the “Time to clearly established localization of thrombus” value ([1]; post-injection) was ≤ 1 h and the “Time of first indications of labeled peptide uptake in images” value ([1]; post-injection, anterior view over hind legs of one dog (FIG. 4)) was 23 min. The “Time to unequivocal localization in images” value ([1]; post-injection, one dog (FIG. 4), persisted until the end of the imaging period) was ≤ 71 min and the “Persistence of thrombus localization” value ([1]; post-injection, with increasing contrast and focal definition) was ~4 h.
“[BAT]RALVDTLKFVTQAEGAK.amide [Compound P215]” was tested, and the “Radioactivity accumulation in HC aortae imaged ex corpora” value ([2]; HC-fed rabbits, aorta removed at 2.5 h) was “greatest deposition in the region of the aortic arch”, the “Correlation of in vivo and ex corpora images with Sudan IV deposition patterns” value ([2]; HC-treated rabbit aortae) was “Positive correlations” and the “Imaging of atherosclerotic plaque (uptake)” value ([2]; Tc-99m labeled) was “high uptake”. The “Uptake in normal aortic tissue” value ([2]; control (plaque-free) aortae) was “minimal uptake”, the Principal clearance pathway ([2]; rabbit, in vivo) was “hepatobiliary system” and the Systemic clearance ([2]; rabbit, in vivo, iv) was “rapid systemic clearance”.
